The subject of series [1] is HepG2 cells. In words: BrdU incorporation cell proliferation assay. Format: cell-based. The method, then:
HepG2 cells (see e.g., Aden et al., Nature 282:615-616 (1979)) (ATCC HB-8065) were maintained in DMEM/F-12 medium with 10% fetal bovine serum and 1% antibiotic/antimycotic. For routine culturing and mRNA preps, cells were grown in 75 cm^2 flasks and split every 4-5 days. For plate assays, cells were plated in 96-well microtiter plates at 1×10^5 cells per well in 100 μl of growth medium.
(§1) Depending on the desired exposure time, cell treatments began 3 or 4 days after splitting or plating. At this time, the cells were near or at confluency. […] Cell treatments were at 37° C.
Uptake of 5-bromo-2′-deoxyuridine (BrdU) was measured using the Cell Proliferation ELISA kit from Boehringer-Mannheim (Indianapolis, Ind.).
Cell proliferation assays based on measurement of BrdU incorporation were performed according to the manufacturer's instructions (Boehringer Mannheim “Cell Proliferation ELISA Kit”).

Series [2] deals with HepG2 cells. Kind of series: Differential display PCR (DD-PCR) of mRNA from treated cells. In kind it is cell-based, human. The note with it: visual inspection, not confirmed. The method, then:
For each reverse transcription reaction, 50 ng of mRNA was incubated with a 3′ Anchored Primer (1 μM) at 65° C. for 5 minutes. The tubes were chilled and spun briefly. […] The final volume was 20 μl. Tubes were heated to 25° C. for 10 min, 42° C. for 60 min, and 70° C. for 15 min. The cDNA produced was either used immediately or stored at −20° C.
The DD-PCR was performed under the conditions recommended by Genomyx Corporation: 95° C. for 2 min; 4 cycles of 92° C. for 15 sec, 46° C. for 30 sec, 72° C. for 2 min; 25 cycles of 92° C. for 15 sec, 60° C. for 30 sec, 72° C. for 2 min; and one cycle of 72° C. for 7 min, followed by cooling at 4° C.
Stop solution (11 μl) was added to each reaction. The tubes were then heated for 2 min at 95° C. A 3-μl aliquot of each reaction was run on a 4.5% denaturing polyacrylamide gel for 16 hours at 800 V, 50° C. Under these conditions, bands ranging from 300 to 1200 base-pairs were well-resolved. Band excision and reamplification were performed according to the instructions given in the Genomyx Corporation protocol. The reamplification reaction mixture was added directly to the excised band and the PCRs were performed under the same conditions as the original DD-PCR, with the exceptions that the M13R(−48) and T7 primers (SEQ ID NO: 3 AND SEQ ID NO: 2, respectively) were used instead of the original anchored and arbitrary primers and [α-^33P]dATP was omitted. The PCR products were purified with S-400 HR microspin columns (Pharmacia).

The subject of series [3] is HepG2 cells. Kind of series: Quantitative RT-PCR (TaqMan). Format: cell-based, human. The procedure: Primers and probes were designed using Primer Express software (Perkin-Elmer). TaqMan probes (Perkin-Elmer) were synthesized with reporter dye 6FAM at the 5′ end and quencher TAMRA at the 3′ end. RNA template concentrations were determined by absorbance at 260 nm. Reactions were performed as described […], using 2.5 ng RNA, 300 nM each PCR primer, and 150 nM Taqman probes. Control reactions were set up with reverse transcriptase or template omitted. Reactions were run on an ABI 7700 instrument (Perkin-Elmer) using the following cycling conditions: reverse transcription at 48° C. for 30 min; inactivation of reverse transcriptase at 95° C. for 10 min; 40 cycles of denaturation at 94° C. for 15 sec and extension at 60° C. for 1 min. Changes in expression were calculated from the displacement of the amplification curve in the treated sample relative to the control.
For orientation: In qPCR the cycle at which signal appears reflects the starting amount.

For series [4], the system named is HepG2 cells. In words: Annexin V assay for apoptosis. In kind it is cell-based, human. As to conditions: 20 mM acetaminophen, 16 mM caffeine, 100 mM thioacetamide, by 24 hr. The procedure: Translocation of phosphatidyl serine to the cell membrane was measured by affinity binding to annexin V using the Apotest Biotin kit from NeXins Research B.V. (The Netherlands). HepG2 cells were cultured as above and plated into Cytostar-T scintillating microplates (Amersham) at 10^6 cells/well and grown for 3 days prior to treatment as above. Following treatment, 50 μl/well of 4 μg/ml annexin V-biotin in 2× Ca^2+ binding buffer was added. Wells with no annexin V-biotin were included as background controls. Following incubation for 20 min at room temperature, 50 μl/well of 0.5 μCi [^35S] streptavidin (Amersham) in 2× Ca^2+ binding buffer was added and incubated for 2 hrs at room temperature with gentle shaking. Plates were spun down at 1,100 rpm for 8 min and read on a Packard TopCount instrument (see e.g., Vermes et al., J. Immunol. Methods 185:81-93 (1995)).

The subject of series [5] is HepG2 cells. Kind of series: Caspase-3 assay for apoptosis. Format: cell-based, human. As to conditions: 100 mM thioacetamide, 24 hr. The method, then:
Caspase-3 assay for apoptosis. Activation of caspase-3, an intracellular cysteine protease, was measured by cleavage of a caspase-specific peptide using the Caspase-3 Colorimetric Assay kit from R&D Systems. HepG2 cells were cultured and treated as above in T-75 tissue culture flasks. Following treatment, cells were scraped off and spun down. The assay was performed according to the kit instructions using 350 μl/flask of lysis buffer.

Series [6] deals with HepG2 cells. Kind of series: Cell morphology after toxicant treatment. The note with it: 24 hr, 20 mM acetaminophen, 16 mM caffeine or 100 mM thioacetamide. The procedure: as §1
The general strategy used for identifying toxicant-induced gene expression changes is outlined in Table 2.

Read-outs that look alike come from different tables or passages of the source.

`CC(=O)Nc1ccc(O)cc1` [acetaminophen]: the inhibition at 20000 µM in series [1] (Homo sapiens, HepG2, 24 h; read-out: Inhibition of BrdU uptake (cell proliferation)) was 67 to 80%. In series [1] (Homo sapiens, HepG2; read-out: IC50, BrdU incorporation in HepG2 cells), the IC50 was about 5 mM. Moreover, the “Number of difference bands on DD-PCR gel, Decreased” value was 0 in series [2] (acetaminophen 0.02 mM), 0 in series [2] (acetaminophen 0.2 mM), 1 in series [2] (acetaminophen 2 mM) and 16 in series [2] (acetaminophen 20 mM). Moreover, the “Number of difference bands on DD-PCR gel, Increased” value in series [2] (acetaminophen 0.02 mM) turned out to be 0; in series [2] (acetaminophen 0.2 mM) it was 0; in series [2] (acetaminophen 2 mM), 4; in series [2] (acetaminophen 20 mM) it was 18. Further, the “TTF-1 interacting peptide 21 down-regulation by RT-PCR” value in series [3] (acetaminophen, 12 hr) is recorded as about 2 fold.
As for `CC(=N)S` [thioacetamide], the IC50 in series [1] (Homo sapiens, HepG2, read-out: IC50, BrdU incorporation in HepG2 cells) is 57 mM. Moreover, in series [4], the “Apoptosis, annexin V assay” value is recorded as “induces the greatest response”. The Caspase-3 activation entry in series [5] was “significant activation”. Besides, in series [3] (Thioacetamide (24 hr)), the “Expression ratio (treated/control), RT-PCR: MT-1G (H53340)” value is 3.1 and the “Expression ratio (treated/control), RT-PCR: MT-2 (R16596)” value is on record as 7.4. The “Expression ratio (treated/control), RT-PCR: MT-1H (H77766)” value in series [3] (Thioacetamide (24 hr), not detectable in control samples) is given as over 1000. The “Cell morphology of treated cells” value in series [6] was “somewhat dense and grainy”.

Values taken from patent publication US20020110808A1, “Toxicant-induced differential gene expression” (priority 2000, published 2002).
